# Measurements: the OPERA property sets (Mansouri et al. 2018)
# Where a SMILES comes first, the peptide text is derived from it.
row,SMILES,logP
1,CSCCC(NC(=O)C(Cc1ccccc1)NC(=O)CNC(=O)C(C)NC(=O)C(N)Cc1ccc(O)cc1)C(=O)O (stereo not given),-0.59
2,CCCCNC(=O)N1C(=O)N(C)CC1O (stereo not given),1.38
3,CC(O)CN(C)C (stereo not given),0.2
4,O=c1cc(-c2cccc(Cl)c2)oc2ccc(Cl)cc12,4.38
5,CCNN=Nc1ccc(C(N)=O)cc1,1.19
6,CCOc1cccc(COC(=O)C2C(C=C(C)C)C2(C)C)c1 (stereo not given),5.87
7,CSc1ccc2nc(-c3ccc(N)cc3)cn2c1,2.9
8,C[C@@H]1C[C@H]2[C@@H]3CCC4=CC(=O)C=C[C@]4(C)[C@@]3(Cl)[C@@H](O)C[C@]2(C)[C@@]1(OC(=O)c1ccco1)C(=O)CCl,3.9
9,O=C(Nc1ccccc1C(=O)O)c1ccccc1,3.54
10,Cc1cc2cc3ccc(=O)oc3c(C)c2o1,2.93
11,C=CCON=C(C)c1cccc(Oc2nc(OC)cc(OC)n2)c1C(=O)OC,3.13
12,COc1ccc(C2Cc3ccccc3N(CCN(C)C)C(=O)C2C)cc1 (stereo not given),4.5
13,c1ccc(CCNc2ncnc3nc[nH]c23)cc1,2.42
14,C=C1C(=O)OC2CC(C)C3C4CC(=O)C3(CC12)C1(C4)C(=O)OC2CC(C)C3C=CC(=O)C3(C)C(O)C21 (stereo not given),1.66
15,Cc1ccc(OC(=O)CNC(=O)c2ccccc2)c(C)c1,3.4
16,Nc1nnnn1-c1ccc(F)cc1,0.75
17,NC1=NCC(COc2cccc(C(F)(F)F)c2)O1 (stereo not given),2.35
18,Cc1coc2cc3oc(=O)cc(C)c3cc12,2.76
19,CC(=O)c1c(C)nc2c3c(c(C(=O)N(C)C)cn12)CCC(c1ccccc1)O3 (stereo not given),2.75
20,NC(Cc1cc(I)c(OCCc2ccc(O)cc2)c(I)c1)C(=O)O (stereo not given),2
21,N#Cc1[nH]cc(-c2ccc(Cl)cc2)c1N1CCOCC1,3.5
22,CC(C)(C)NC(=O)[C@@H]1CN(Cc2cccnc2)CCN1C[C@@H](O)C[C@@H](Cc1ccccc1)C(=O)N[C@H]1c2ccccc2C[C@H]1O,3.49
23,COc1cccc2c1OP(=O)(OCC1C=CC(n3cc(C)c(=O)[nH]c3=O)O1)OC2 (stereo not given),0.15
24,COc1c2oc(=O)ccc2cc2ccsc12,2.66

row,SMILES,logP
1,COc1ccccc1N1CCN(c2ccc(Nn3c(C)ccc3C)nn2)CC1,3.61
2,COC(=O)C(C)NP(=O)(OCC1C=CC(n2cc(C)c(=O)[nH]c2=O)O1)Oc1ccc(Cl)cc1 (stereo not given),1.43
3,O=C1C(NCCO)=C(N2CC2)C(=O)C(NCCO)=C1N1CC1,-1.47
4,CCCC(=NOCC)C1=C(O)CC2(CCC(CC)CC2)OC1=O (stereo not given),4.47
5,CCCC(=O)OCC1OC(n2cc(I)c(=O)[nH]c2=O)CC1O (stereo not given),0.88
6,S=c1nccc[nH]1,-1.11
7,CN1CC(O)N(C(=O)Nc2ccccc2)C1=O (stereo not given),1.44
8,COCCCNc1ncnc2c1ncn2C1OC(CO)C(O)C1O (stereo not given),-0.17
9,CCSc1cccc2nc(N)nc(N)c12,2.27
10,COc1cc2c(Nc3cc(CC(=O)Nc4cccc(F)c4F)[nH]n3)ncnc2cc1OCCCN(CCO)CC(C)C,5.2
11,CNc1ccc2cc3ccc4c(c3nc2c1CO)COCN4S(C)(=O)=O,1.2
12,COc1ccc(CCNCC(O)COc2ccc(-c3nccs3)cc2)cc1OC (stereo not given),2.5
13,c1ccc2c(c1)OCC(Cc1nc3ccccc3[nH]1)O2 (stereo not given),3.29
14,CCOC(=O)C(=Cc1ccccc1)S(=O)(=O)c1ccc([N+](=O)[O-])cc1,3.2
15,CCOc1cccc(CNc2[nH]cnc3ncnc2-3)c1,2.57
16,CSCCC(NC(=O)C(N)Cc1ccccc1)C(=O)O (stereo not drawn) (H-Phe-Met-OH; configuration not given here),-1.59
17,CC#CC(O)c1c(C)nc2c3c(c(C(=O)N(C)C)cn12)CCC(c1ccccc1)O3 (stereo not given),2.7
18,CC(C)C(N)C(=O)N1CCCC1C(=O)NCC(=O)NC(C(=O)O)C(C)C (stereo not given) (H-VPGV-OH; configuration not given here),-2.83
19,CCCC(=NOCC)C1=C(O)CC(C)(C)OC1=O,2.56
20,CC(=NNC(=O)c1cccc(Br)c1)c1cnccn1,2.9
21,Clc1cccc(Oc2c(Cl)cc(Cl)cc2Cl)c1,6.05
22,Cc1ccccc1C1CCc2c(C(=O)N(C)C)cn3c(C)c(C)nc3c2O1 (stereo not given),3.5
23,Cc1cccc(C)c1CCc1cnc[nH]1,2.91
24,O=C(O)CCCCON=C(c1cccc(C(F)(F)F)c1)c1cccnn1,2.8

row,SMILES,logP
1,COc1cc2ncnc(Nc3cccc(Cl)c3)c2cc1OC,3.51
2,O=C1N=C(N2CCOCC2)CN1c1ccccc1,0.6
3,Nc1nc(N)c2c(F)cccc2n1,1.19
4,c1ccc2c(c1)OCC(c1ncc[nH]1)O2 (stereo not given),1.76
5,O=C(O)c1cc(O)c(Br)c(O)c1,1.75
6,CCOP(=O)(OCC)C(C)(C)[N+]([O-])=Cc1ccc(Cl)cc1,2.29
7,CCCc1nc(NCC)nc(N2CCCCC2)n1,3.34
8,Cc1cc2ncccc2c2nc(N)n(C)c12,1.98
9,CCOc1ccccc1NC(=O)OC1C(CN(CC)CC)C2CCC1(C)C2(C)C (stereo not given),5.8
10,CCOC(=O)c1cnc2ccc(C)cn2c1=O,0.9
11,CC(C)CC(NC(=O)CN)C(=O)NC(CC(C)C)C(=O)NCC(=O)NC(Cc1ccccc1)C(=O)O (stereo not given) (H-GLLGF-OH; configuration not given here),-0.18
12,CCCC(=NOCC)C1=C(O)CC2(CCC(C)CC2)OC1=O (stereo not given),4.07
13,C=CCC(=O)Nc1ccc(Cl)c(Cl)c1,3.63
14,Clc1cc2c(cc1Cl)Oc1c(Cl)c(Cl)cc(Cl)c1O2,6.2
15,O=C(O)CCCCCON=C(c1cccc(C(F)(F)F)c1)c1cnccn1,3.52
16,Cc1nc2c3c(c(C(=O)N4CCCC4)cn2c1C)CCC(c1ccccc1)O3 (stereo not given),3.6
17,CC(=O)OC(C)(C)C1CCC2(C)CCCC(O)C2C1 (stereo not given),3.62
18,COC(=O)c1cc2ccc3cccc4ccc(c1)c2c34,4.85
19,COc1cc(Cl)ccc1O,2.15
20,O=c1nc(N=CN2CCCCC2)ccn1C1CC(O)C(CO)O1 (stereo not given),-0.51
21,COc1c2c(cc3c1-c1ccc(OC)c(=O)cc1C(NC(C)=O)CC3)OCO2 (stereo not given),1.6
22,Brc1cc(Br)c2ccc3cccc4ccc1c2c43,6.85
23,CCC(C)C(N)C(=O)NC(C(=O)NC(C(=O)NC(C(=O)O)C(C)C)C(C)C)C(C)CC (stereo not given) (H-IIVV-OH; configuration not given here),-1.41
24,O=C(NC1CCCCCCC1)NS(=O)(=O)c1cnccc1NC1CCCCCC1,5.34

row,SMILES,logP
1,OCCCCNc1ncnc2c1ncn2C1OC(CO)C(O)C1O (stereo not given),-0.62
2,N#CCCOC1Cc2c(O)cc(O)cc2OC1c1ccc(O)c(O)c1 (stereo not given),0.96
3,Cc1oc2cc3oc(=O)ccc3c(C)c2c1C,3.27
4,O=C1C=C(N2CC2)C(=O)C=C1N1CC1,0.18
5,CC(=O)c1cc2cccc3ccc4cccc1c4c32,4.16
6,c1nc2nc[nH]c(N3CCC3)c-2n1,0.87
7,CCC(C)C(NC(=O)C(CCCNC(=N)N)NC(C)=O)C(=O)NC(Cc1ccccc1)C(N)=O (stereo not drawn) (Ac-Arg-Ile-Phe-NH2; configuration not given here),-0.04
8,Nc1nnnn1-c1ccccc1,0.69
9,OCC1OC(n2cnc3c(NCc4ccccc4)ncnc32)C(O)C1O (stereo not given),1.23
10,Cc1cc(=O)[nH]nc1/C=C/c1ccc(-n2cnc3c2CCCC3)cc1,3.1
11,CCOc1ccc(N)c(OCC)c1,2.19
12,Cc1ccc([N+](=O)[O-])c(C(=O)O)c1,1.63
13,Cn1ccnc1CC1COc2ccccc2O1 (stereo not given),1.93
14,CC(C)CC(NC(=O)C(NC(=O)C(CC(C)C)NC(=O)C(N)C(C)C)C(C)C)C(=O)O (stereo not given) (H-VLVL-OH; configuration not given here),-1.23
15,O=C(NS(=O)(=O)c1cnccc1NC1CCCCCCC1)N1CCCCC1,4.55
16,ClCC1(CCl)C2CC(Cl)(Cl)C1(CCl)C(Cl)C2Cl (stereo not given),5.23
17,CN1CC(O)N(C(=O)NC(C)(C)C)C1=O (stereo not given),1.38
18,O=C(Nc1ncnc2nc[nH]c12)c1ccccc1,1.12
19,CCN(CC)CCC(=O)Nc1ccccc1,2.31
20,Fc1cccc(CNc2ncnc3nc[nH]c23)c1,2.31
21,COc1ccc2c(c1)COP(=O)(OCC1C=CC(n3cc(C)c(=O)[nH]c3=O)O1)O2 (stereo not given),0.36
22,O=C(NC1CCCCC1)NS(=O)(=O)c1cnccc1NC1CCCCCCC1,4.96
23,COC(=O)C=CCn1ccnc1[N+](=O)[O-],0.32
24,COC(=O)C(C)NP(=O)(OCC1C=CC(n2cc(C)c(=O)[nH]c2=O)O1)Oc1cccc(Br)c1 (stereo not given),1.64

row,SMILES,logP
1,CC(=O)OC1C(C)OC(n2cc(F)c(=O)[nH]c2=O)C1OC(C)=O (stereo not given),-0.02
2,O=[N+]([O-])c1ncn(C2OC(CO)C(O)C2O)n1 (stereo not given),-1.54
3,CC1CCCCN1CC1CN=C(N)O1 (stereo not given),0.73
4,C#CCN(N=O)C(=O)NCCCCC(NC(C)=O)C(=O)NCc1ccccc1 (stereo not given),1.64
5,C[N+](C)([O-])CCCN1c2ccccc2Sc2ccccc21,1.9
6,CCOC(=O)N1COCc2c1ccc1cc3ccc4c(c3nc21)COCN4C(=O)OCC,2.5
7,COc1ccc(CCNCC(O)COc2ccc(Cc3nc(C)c[nH]3)cc2)cc1OC (stereo not given),2.5
8,Cc1cc(C)cc(Cc2c[nH]cn2)c1,2.52
9,COC(=O)C=CCn1cnc([N+](=O)[O-])n1,0.09
10,O=C1c2ccc(Cl)cc2OCN1CCO[N+](=O)[O-],2.74
11,Cc1cc2cc3c(C)cc(=O)oc3cc2o1,2.82
12,OCC1OC(n2cnc3c(NCCCc4ccccc4)ncnc32)C(O)C1O (stereo not given),1.92
13,O=[N+]([O-])c1ccc(-n2cccn2)cc1,2.25
14,Cc1ccccc1N1CCN(CC2CN=C(N)O2)CC1 (stereo not given),1.78
15,CCCC1C(=O)N(CCN(C)C)c2cccc(C(F)(F)F)c2CC1c1ccc(OC)cc1 (stereo not given),6.9
16,C=Cn1c([N+](=O)[O-])cnc1C=Cc1ccc(C(=O)O)cc1,2.68
17,COCc1c(O)c(=O)cc(C)n1C,-0.42
18,CCCCC(=O)NCCCCCN(O)C(=O)CCC(=O)NCCCCCN(O)C(=O)CCC(=O)NCCCCCN(O)C(C)=O,0.88
19,O=C1NC(Cc2c[nH]c3ccccc23)C(=O)NC1Cc1c[nH]c2ccccc12 (stereo not given),2.04
20,COc1ccc(-c2ccsc2)cc1CNC1CCCNC1c1ccccc1 (stereo not given),4.8
21,O=C(Cc1ccccc1)OC1Cc2c(O)cc(O)cc2OC1c1ccc(O)c(O)c1 (stereo not given),3.09
22,CCCCCOC1CCC(NC(=O)NC23CC4CC(CC(C4)C2)C3)CC1 (stereo not given),5
23,c1ccc(CCN2CCN(CCn3nc4ccccc4n3)CC2)cc1,3.72
24,COC(=O)C(C)NP(=O)(OCC1C=CC(n2cc(C)c(=O)[nH]c2=O)O1)Oc1cccc(F)c1 (stereo not given),1.08
